In ChEMBL document CHEMBL3108748, “Telomere maintenance as a target for drug discovery” (J Med Chem, 2014):
Each block holds one molecule with its values, some of them ahead of it.

Experiments:
[1] = biological target: T1, Telomerase reverse transcriptase (Homo sapiens, UniProt O14746); assay: Inhibition of human telomerase activity in human Jurkat cells by TRAP assay; format: cell-based
[2] = biological target: T1, Telomerase reverse transcriptase; assay: Inhibition of human telomerase activity by TRAP assay
[3] = biological target: Telomerase reverse transcriptase (Rattus norvegicus, UniProt Q673L6); assay: Inhibition of rat telomerase by TRAP assay
Telomerase reverse transcriptase (Rattus norvegicus, UniProt Q673L6), sequence (Q673L6 whole entry): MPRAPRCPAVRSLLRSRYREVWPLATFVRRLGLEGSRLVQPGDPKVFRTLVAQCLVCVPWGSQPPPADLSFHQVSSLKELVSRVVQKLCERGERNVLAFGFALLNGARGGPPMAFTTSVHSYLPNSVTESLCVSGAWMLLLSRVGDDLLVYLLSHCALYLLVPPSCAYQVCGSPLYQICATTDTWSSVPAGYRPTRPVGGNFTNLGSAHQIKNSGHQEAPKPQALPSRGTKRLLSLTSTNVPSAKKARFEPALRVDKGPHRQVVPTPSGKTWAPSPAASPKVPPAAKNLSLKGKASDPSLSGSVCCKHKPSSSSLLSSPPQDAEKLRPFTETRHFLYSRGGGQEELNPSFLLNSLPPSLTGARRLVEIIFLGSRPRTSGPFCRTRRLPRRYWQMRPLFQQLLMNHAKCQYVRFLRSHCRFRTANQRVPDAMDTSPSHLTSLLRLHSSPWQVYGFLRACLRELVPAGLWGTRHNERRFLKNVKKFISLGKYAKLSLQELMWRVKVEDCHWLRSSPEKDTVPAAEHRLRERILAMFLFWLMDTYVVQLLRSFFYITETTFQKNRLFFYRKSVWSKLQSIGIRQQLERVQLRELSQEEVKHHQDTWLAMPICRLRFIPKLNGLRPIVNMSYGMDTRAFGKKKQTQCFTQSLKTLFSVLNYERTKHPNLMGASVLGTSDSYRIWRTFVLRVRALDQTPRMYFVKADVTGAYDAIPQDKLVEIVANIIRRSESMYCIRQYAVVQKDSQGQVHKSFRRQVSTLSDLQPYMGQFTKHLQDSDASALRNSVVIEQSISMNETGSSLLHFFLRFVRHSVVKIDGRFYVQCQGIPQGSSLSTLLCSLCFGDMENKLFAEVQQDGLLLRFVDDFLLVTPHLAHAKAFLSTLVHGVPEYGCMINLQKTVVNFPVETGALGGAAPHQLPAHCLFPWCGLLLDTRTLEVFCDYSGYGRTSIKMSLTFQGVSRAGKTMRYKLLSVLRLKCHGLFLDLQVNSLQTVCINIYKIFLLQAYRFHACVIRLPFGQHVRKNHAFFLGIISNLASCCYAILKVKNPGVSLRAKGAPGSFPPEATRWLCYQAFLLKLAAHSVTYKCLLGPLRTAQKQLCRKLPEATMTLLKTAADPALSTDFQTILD

[4] = biological target: T1, Telomerase reverse transcriptase; assay: Inhibition of human telomerase activity after 8 mins by SYBR Green staining-based TRAP assay

T1 sequence (O14746 whole entry): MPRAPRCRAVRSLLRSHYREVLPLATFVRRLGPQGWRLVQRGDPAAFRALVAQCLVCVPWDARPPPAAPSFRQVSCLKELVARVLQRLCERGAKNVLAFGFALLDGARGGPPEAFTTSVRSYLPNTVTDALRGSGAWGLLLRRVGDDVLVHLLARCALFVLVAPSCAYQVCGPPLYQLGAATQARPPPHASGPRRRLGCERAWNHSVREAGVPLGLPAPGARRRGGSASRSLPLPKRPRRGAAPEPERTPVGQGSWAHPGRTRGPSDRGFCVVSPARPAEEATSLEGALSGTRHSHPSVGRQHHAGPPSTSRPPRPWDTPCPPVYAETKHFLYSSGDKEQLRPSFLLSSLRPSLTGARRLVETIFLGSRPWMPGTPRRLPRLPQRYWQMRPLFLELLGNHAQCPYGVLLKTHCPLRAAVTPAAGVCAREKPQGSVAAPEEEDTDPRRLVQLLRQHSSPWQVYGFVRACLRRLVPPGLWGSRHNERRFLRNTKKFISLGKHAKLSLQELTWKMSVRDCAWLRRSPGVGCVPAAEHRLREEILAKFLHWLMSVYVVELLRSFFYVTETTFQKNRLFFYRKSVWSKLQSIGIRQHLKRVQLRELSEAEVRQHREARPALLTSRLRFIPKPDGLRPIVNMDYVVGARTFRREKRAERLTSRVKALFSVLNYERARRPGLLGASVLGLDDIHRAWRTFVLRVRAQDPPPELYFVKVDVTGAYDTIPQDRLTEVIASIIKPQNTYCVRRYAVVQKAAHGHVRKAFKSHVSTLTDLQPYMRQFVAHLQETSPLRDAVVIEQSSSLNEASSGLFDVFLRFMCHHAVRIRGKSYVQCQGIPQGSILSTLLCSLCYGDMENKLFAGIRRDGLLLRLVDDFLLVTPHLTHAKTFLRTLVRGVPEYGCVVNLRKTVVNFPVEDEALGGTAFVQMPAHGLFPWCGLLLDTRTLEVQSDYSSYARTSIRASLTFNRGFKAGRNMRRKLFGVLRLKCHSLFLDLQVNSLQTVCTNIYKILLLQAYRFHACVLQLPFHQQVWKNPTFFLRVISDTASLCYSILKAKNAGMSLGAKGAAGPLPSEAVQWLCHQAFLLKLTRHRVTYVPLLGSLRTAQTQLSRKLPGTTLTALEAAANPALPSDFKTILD

SMILES: COc1ccc2c(c1)CC[C@@H]1[C@@H]2CC[C@]2(C)[C@@H](NCCCCCCN3C(=O)C=CC3=O)CC[C@@H]12
IC50 [1]: 200 nM

IC50 [2]: 1000 nM
SMILES: N=C(N)Nc1nc(-c2cc(Cl)sc2Cl)cs1

IC50 [3]: 1000 nM
SMILES: O=c1ccsn1-c1cccc(C(F)(F)F)c1

IC50 [4]: 400 nM
SMILES: O=[N+]([O-])/C=C/c1cccc(Oc2cc(Cl)cc(Cl)c2)c1
